tested on: Erythrocyte beta receptor; test: Free energy of binding to turkey erythrocyte beta receptor; design: unit not given here; details: Meleagris gallopavo

Row | Compound | Delta G
1 | CC(C)NC[C@H](O)c1ccc(O)c2ncccc12 | -10.4
2 | CC(C)(Cc1ccc(O)cc1)NC[C@H](O)c1ccc(O)c(O)c1 | -10
3 | CC(C)NC[C@@H](O)COc1cccc2ccccc12 | -11.7
4 | COc1ccc(CC(C)NC[C@H](O)c2ccc(O)c(CO)c2)cc1 (some centres not stated) | -7.65
5 | CNC[C@H](O)c1cccc(O)c1 | -6.72
6 | CC(C)NC[C@H](O)c1ccc(NS(C)(=O)=O)cc1 | -8.46
7 | C[C@H](N)[C@H](O)c1ccc(O)c(O)c1 | -9.64
8 | C=CCc1cccc(OC[C@@H](O)CNC(C)C)c1 | -8.82
9 | CC(C)NC[C@H](O)c1ccc(O)c(NS(C)(=O)=O)c1 | -7.36
10 | C[C@H](NCCc1ccccc1)[C@H](O)c1ccc(O)cc1 | -9.01
11 | CC[C@H](NC(C)C)[C@H](O)c1ccc(NS(C)(=O)=O)cc1 | -7.41
12 | CC(C)NC[C@H](O)c1cccc(O)c1 | -7.99
13 | CC(=O)Nc1ccc(OC[C@@H](O)CNC(C)C)cc1 | -7.54
14 | CC(Cc1ccc(O)cc1)NC[C@H](O)c1cc(O)cc(O)c1 (some centres not stated) | -8.62
15 | CC(C)(Cc1ccc(O)cc1)NC[C@H](O)COc1cccc2ccccc12 | -11.2
16 | CC(C)(Cc1ccccc1)NC[C@H](O)c1ccc(O)c(NS(C)(=O)=O)c1 | -9.64
17 | CC(C)NC[C@H](O)c1ccc2ccccc2c1 | -9.06
18 | CC(C)NC[C@H](O)COc1cccc2[nH]ccc12 | -13
19 | C[C@H](COc1ccccc1)NC[C@H](O)c1ccc(O)cc1 | -7.95

Row | Compound | Delta G
20 | CC(C)NCC(O)c1ccc(O)c(O)c1 (configuration not stated) | -9.18
21 | CCNC[C@H](O)c1cccc(O)c1 | -6.75
22 | NC[C@H](O)COc1cccc2ccccc12 | -10.9
23 | CNC[C@H](O)c1ccc(O)cc1 | -6.01
24 | CC(C)(C)NC[C@H](O)COc1cccc2[nH]ccc12 | -13.5
25 | NC[C@H](O)c1ccc(O)c(O)c1 | -7.26
26 | C=CCOc1ccccc1OC[C@@H](O)CNC(C)C | -11.6
27 | CC(C)NC[C@H](O)c1ccc(O)c(CS(C)(=O)=O)c1 | -7.85
28 | CN[C@@H](C)[C@H](O)c1ccc(O)cc1 | -6.47
29 | Oc1ccc(CCNC[C@H](O)COc2cccc3ccccc23)cc1 | -10.9
30 | O[C@@H](CNc1ccccc1)c1ccccc1 | -5.76
31 | CC(C)NC[C@H](O)COc1ccc(N)cc1 | -8.96
32 | CC(C)NC[C@H](O)COc1cccc2c(O)cccc12 | -11.2
33 | NC[C@H](O)c1ccc(O)cc1 | -5.94
34 | CC(C)(C)NC[C@H](O)c1cc(O)cc(CO)c1 | -6.58
35 | C[C@H](N)[C@H](O)c1ccc(O)cc1 | -6.27
36 | CC[C@H](NC(C)C)[C@H](O)c1ccc(O)c(O)c1 | -8.02
37 | CNC[C@H](O)c1ccccc1 | -6.79
38 | CC(C)NC[C@H](O)c1ccc(NS(C)(=O)=O)c(O)c1 | -6.29

Row | Compound | Delta G
39 | CC(C)(Cc1ccc(O)cc1)NC[C@H](O)c1cc(O)cc(CO)c1 | -7.61
40 | CNC[C@H](O)c1ccc(O)c(O)c1 | -7.86
41 | CCNC[C@H](O)c1ccc(O)c(O)c1 | -7.59
42 | CC(C)NC[C@H](O)c1ccc(O)cc1 | -7.54
43 | NC[C@H](O)c1cccc(O)c1 | -7.23
44 | COc1ccc(CCNC[C@H](O)COC2=CC=CC3C(=O)C=CC=C23)cc1OC (some centres not stated) | -11.3
45 | CC(CCc1ccccc1)N[C@@H](C)[C@H](O)c1ccc(O)cc1 (some centres not stated) | -9.55
46 | CC(C)NC[C@H](O)COc1ccc(O)c(O)c1 | -9.13
47 | CC(C)NC[C@H](O)c1cc(O)cc(O)c1 | -7.13
48 | CC(C)NC[C@H](O)c1ccc(Cl)c(Cl)c1 | -8.83
49 | CC(C)(C)NC[C@H](O)c1ccc(O)c(CO)c1 | -8.23
50 | CC(Cc1ccc2c(c1)OCO2)NC[C@H](O)c1ccc(O)c(O)c1 (some centres not stated) | -9.88
51 | CC(C)(C)NC[C@H](O)COC1=CC=CC2C(=O)C=CC=C12 (some centres not stated) | -11.9
52 | C=CCc1ccccc1OC[C@@H](O)CNC(C)C | -12.1
53 | CS(=O)(=O)Nc1cc([C@@H](O)CNC2CC2)ccc1O | -8.19
54 | CC(C)NC[C@H](O)COc1ccccc1I | -12.8
55 | CC(Cc1ccc(O)cc1)NC[C@H](O)c1ccc(O)c(O)c1 (some centres not stated) | -10.4
56 | CC(C)(Cc1ccc(O)cc1)NC[C@H](O)COc1cccc2[nH]ccc12 | -14.7
57 | CC(C)NC[C@H](O)COc1ccc(O)cc1 | -8.91

Source: ChEMBL document CHEMBL1123401, “Mapping the turkey erythrocyte beta receptor: a distance geometry approach” (J Med Chem, 1986)
